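Tested at 5 concentrations; 48 h exposure; 96-well plates; endpoints linearly interpolated, else capped at highest concentration. The concentration for 50% growth inhibition is given as GI50. TGI marks complete inhibition of growth.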
Assays:
Experiment in all cases: NCI tumour cell line growth inhibition, 48 h
K-562 leukemia = tested on: K-562 leukemia
SK-OV-3 ovarian = tested on: SK-OV-3 ovarian
HL-60(TB) leukemia = tested on: HL-60(TB) leukemia
OVCAR-3 ovarian = tested on: OVCAR-3 ovarian
MALME-3M melanoma = tested on: MALME-3M melanoma
SW-620 colon = tested on: SW-620 colon
CAKI-1 renal = tested on: CAKI-1 renal
HT29 colon = tested on: HT29 colon
NCI-H522 lung = tested on: NCI-H522 lung
HCC-2998 colon = tested on: HCC-2998 colon

Row | Structure (SMILES) | TGI (K-562 leukemia) | TGI (SK-OV-3 ovarian) | TGI (HL-60(TB) leukemia) | TGI (OVCAR-3 ovarian) | TGI (MALME-3M melanoma) | TGI (SW-620 colon) | TGI (CAKI-1 renal) | TGI (HT29 colon) | TGI (NCI-H522 lung) | GI50 (K-562 leukemia) | GI50 (SK-OV-3 ovarian) | GI50 (HCC-2998 colon) | TGI (HCC-2998 colon) | GI50 (HL-60(TB) leukemia) | GI50 (OVCAR-3 ovarian) | GI50 (MALME-3M melanoma) | GI50 (SW-620 colon) | GI50 (CAKI-1 renal) | GI50 (HT29 colon) | GI50 (NCI-H522 lung)
1 | O=C(Nc1nc2ncn(CC(COc3ccccc3)OC(=O)c3ccccc3)c2c(=O)[nH]1)c1ccccc1 (stereo unspecified) | > 100 µM | > 100 µM | > 100 µM | > 100 µM | > 100 µM | > 100 µM | > 100 µM | > 100 µM | > 100 µM |  |  |  |  |  |  |  |  |  |  | 
2 | CCCc1nc2c(C)cc(-c3nc4ccccc4n3C)cc2n1Cc1ccc(-c2ccccc2C(=O)O)cc1 | > 100 µM | > 100 µM | 77.4 µM | 37.3 µM | > 100 µM | > 100 µM | 61.3 µM | > 100 µM | 46.5 µM | 23.2 µM | > 100 µM | 51.9 µM | > 100 µM | 28.8 µM | 14.7 µM | 45.9 µM | 49.3 µM | 22.6 µM | 35.8 µM | 22 µM
3 | O=C(NO)C12C3C4C1C1C2C3C41C(=O)NO (stereo unspecified) | > 100 µM | > 100 µM | > 100 µM | > 100 µM | > 100 µM |  | > 100 µM | > 100 µM | > 100 µM |  |  |  | > 100 µM |  |  |  |  |  |  | 
4 | Nc1ccn(C2CC(CO)C(O)C2O)c(=O)n1 (stereo unspecified) | > 57.7 µM | > 57.7 µM | > 57.7 µM | > 57.7 µM | > 57.7 µM | > 57.7 µM | > 57.7 µM |  | > 57.7 µM |  |  |  | > 57.7 µM |  |  |  |  |  |  | 
5 | O=C(Nc1c(O)[nH]c(=S)[nH]c1=O)c1ccc2ccccc2n1 | > 100 µM | > 100 µM | > 100 µM | > 100 µM | > 100 µM | > 100 µM | > 100 µM | > 100 µM | > 100 µM |  |  |  |  |  |  |  |  |  |  | 
6 | O=[N+]([O-])c1nccn1COCCF | > 100 µM | > 100 µM | > 100 µM | > 100 µM | > 100 µM | > 100 µM | > 100 µM | > 100 µM | > 100 µM |  |  |  |  |  |  |  |  |  |  | 
7 | O=C(/C=C\c1ccc(Cl)cc1Cl)c1cccs1 | > 100 µM | 59.3 µM | > 100 µM | 89.7 µM | 42.9 µM | 28.8 µM | 80.4 µM | 64.5 µM | 50.3 µM |  |  |  |  |  |  |  |  |  |  | 
8 | COc1ccc(-c2ccc(C3CC(c4ccc(Cl)cc4)=NN3)o2)c([N+](=O)[O-])c1 (stereo unspecified) | > 100 µM | > 100 µM | > 100 µM | > 100 µM | > 100 µM | > 100 µM |  | > 100 µM | > 100 µM | > 100 µM | > 100 µM | > 100 µM | > 100 µM | > 100 µM | > 100 µM | > 100 µM | > 100 µM |  | > 100 µM | > 100 µM
9 | CCOC(=O)/C(=C/c1ccc(C#N)cc1)N(CC)CC | > 100 µM | > 100 µM | > 100 µM |  | > 100 µM | > 100 µM | > 100 µM | > 100 µM | > 100 µM |  |  |  | > 100 µM |  |  |  |  |  |  | 
10 | COc1ccc(/C=C2\CCC(C)(CN(C)C)C2=O)cc1 (stereo unspecified) | > 100 µM |  | > 100 µM | > 100 µM | > 100 µM | > 100 µM | > 100 µM | > 100 µM | 32.8 µM |  |  |  | > 100 µM |  |  |  |  |  |  | 
11 | CC(C)(C)C(=O)C1CC(=O)c2ccccc2C1=O (stereo unspecified) | > 100 µM | 75 µM | 43.6 µM | 71.4 µM | 31.4 µM | > 100 µM | 84.7 µM |  | 65.8 µM |  |  |  | > 100 µM |  |  |  |  |  |  | 
12 | COC(=O)C1=C(C(=O)OC)C23C=C(C)C1C2=C(C)C1(CC1)[C@@](C)(O)C3=O (stereo partly specified) | > 100 µM | 0.7 µM | 15.9 µM | 2.12 µM | 2.16 µM | 30.2 µM |  | 16.9 µM | 5.75 µM | 6.07 µM | 0.25 µM | 0.245 µM | 0.693 µM | 1.55 µM | 0.336 µM | 0.449 µM | 9.14 µM |  | 0.337 µM | 0.495 µM
13 | Cc1ccc(Cl)c(NC(=O)C(=O)C(C(=O)c2ccncc2)C2OC(=O)c3ccccc32)c1 (stereo unspecified) | > 100 µM | > 100 µM | > 100 µM |  | > 100 µM | > 100 µM | > 100 µM | > 100 µM | > 100 µM |  |  |  | > 100 µM |  |  |  |  |  |  | 
14 | COc1cc(C(=O)c2cc3c(cc2C)OCO3)cc(OC)c1OC | > 100 µM | > 100 µM | 0.152 µM |  |  | > 100 µM | > 100 µM | > 100 µM | 3.9 µM | 0.051 µM | 0.0874 µM | 0.218 µM | > 100 µM | 0.0329 µM | 0.0765 µM |  | 0.0608 µM | 0.208 µM | 0.105 µM | 0.26 µM
15 | Nc1nc2nc[nH]c2c(=O)[nH]1 | > 100 µM | > 100 µM | > 100 µM | > 100 µM | > 100 µM | > 100 µM | > 100 µM | > 100 µM | > 100 µM |  |  |  |  |  |  |  |  |  |  | 
16 | NCc1nnn(Cc2ccccc2)c1N | > 100 µM | > 100 µM | > 100 µM | > 100 µM | > 100 µM | > 100 µM | > 100 µM | > 100 µM | > 100 µM |  |  |  |  |  |  |  |  |  |  | 

— PubChem BioAssay (NCI)
